PubChem BioAssay (NCI)
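Interpolation was linear, between the two tested concentrations surrounding the appropriate level; five concentrations were tested over 48 hours in 96-well plates. The concentration for full growth arrest is given as TGI.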

Experiments:
Test in all cases: DTP human tumour cell line panel, 48 h
HT29 colon = tested on: HT29 colon
OVCAR-4 ovarian = tested on: OVCAR-4 ovarian
786-0 renal = tested on: 786-0 renal
SK-MEL-2 melanoma = tested on: SK-MEL-2 melanoma
CCRF-CEM leukemia = tested on: CCRF-CEM leukemia
SN12C renal = tested on: SN12C renal
MALME-3M melanoma = tested on: MALME-3M melanoma
PC-3 prostate = tested on: PC-3 prostate
BT-549 breast = tested on: BT-549 breast
HS 578T breast = tested on: HS 578T breast
OVCAR-3 ovarian = tested on: OVCAR-3 ovarian
TK-10 renal = tested on: TK-10 renal
HCT-15 colon = tested on: HCT-15 colon
M14 melanoma = tested on: M14 melanoma
UO-31 renal = tested on: UO-31 renal
EKVX NSCLC = tested on: EKVX NSCLC
COLO 205 colon = tested on: COLO 205 colon
SF-268 CNS = tested on: SF-268 CNS
SF-295 CNS = tested on: SF-295 CNS
MDA-MB-435 = tested on: MDA-MB-435
A498 renal = tested on: A498 renal
RXF 393 renal = tested on: RXF 393 renal
SF-539 CNS = tested on: SF-539 CNS
NCI-H522 lung = tested on: NCI-H522 lung
UACC-62 melanoma = tested on: UACC-62 melanoma
NCI/ADR-RES ovarian = tested on: NCI/ADR-RES ovarian
A549 NSCLC = tested on: A549 NSCLC
HOP-92 NSCLC = tested on: HOP-92 NSCLC
HOP-62 NSCLC = tested on: HOP-62 NSCLC
UACC-257 melanoma = tested on: UACC-257 melanoma
MCF7 breast = tested on: MCF7 breast
MDA-N = tested on: MDA-N
SNB-75 CNS = tested on: SNB-75 CNS
SK-OV-3 ovarian = tested on: SK-OV-3 ovarian
SW-620 colon = tested on: SW-620 colon
DU-145 prostate = tested on: DU-145 prostate
HCT-116 colon = tested on: HCT-116 colon
K-562 leukemia = tested on: K-562 leukemia
NCI-H23 lung = tested on: NCI-H23 lung
NCI-H460 lung = tested on: NCI-H460 lung
SK-MEL-5 melanoma = tested on: SK-MEL-5 melanoma
HCC-2998 colon = tested on: HCC-2998 colon
U251 CNS = tested on: U251 CNS
IGROV1 ovarian = tested on: IGROV1 ovarian
LOX IMVI melanoma = tested on: LOX IMVI melanoma
HL-60(TB) leukemia = tested on: HL-60(TB) leukemia
OVCAR-8 ovarian = tested on: OVCAR-8 ovarian
ACHN renal = tested on: ACHN renal
SNB-19 CNS = tested on: SNB-19 CNS
OVCAR-5 ovarian = tested on: OVCAR-5 ovarian
MDA-MB-231 breast = tested on: MDA-MB-231 breast
SK-MEL-28 melanoma = tested on: SK-MEL-28 melanoma
NCI-H226 lung = tested on: NCI-H226 lung
MOLT-4 leukemia = tested on: MOLT-4 leukemia
T-47D breast = tested on: T-47D breast
RPMI-8226 leukemia = tested on: RPMI-8226 leukemia
SR leukemia = tested on: SR leukemia
KM12 colon = tested on: KM12 colon
CAKI-1 renal = tested on: CAKI-1 renal

`CCCCn1c(=O)[nH]c2c(N)ncnc21` gave a TGI (HT29 colon) of over 100 µM, a TGI (OVCAR-4 ovarian) of over 100 µM and a TGI (786-0 renal) of over 100 µM. The TGI (SK-MEL-2 melanoma) was over 100 µM, the TGI (CCRF-CEM leukemia) was over 100 µM and the TGI (SN12C renal) was over 100 µM. The TGI (MALME-3M melanoma) was over 100 µM, the TGI (PC-3 prostate) was over 100 µM and the TGI (BT-549 breast) was over 100 µM. It also gave a TGI (HS 578T breast) of over 100 µM, a TGI (OVCAR-3 ovarian) of over 100 µM and a TGI (TK-10 renal) of over 100 µM. It also gave a TGI (HCT-15 colon) of over 100 µM, a TGI (M14 melanoma) of over 100 µM and a TGI (UO-31 renal) of over 100 µM. For the same molecule, the TGI (EKVX NSCLC) was over 100 µM, the TGI (COLO 205 colon) was over 100 µM and the TGI (SF-268 CNS) was over 100 µM. The TGI (SF-295 CNS) was over 100 µM, the TGI (MDA-MB-435) was over 100 µM and the TGI (A498 renal) was over 100 µM. It also gave a TGI (RXF 393 renal) of over 100 µM, a TGI (SF-539 CNS) of over 100 µM and a TGI (NCI-H522 lung) of over 100 µM. It also gave a TGI (UACC-62 melanoma) of over 100 µM, a TGI (NCI/ADR-RES ovarian) of over 100 µM and a TGI (A549 NSCLC) of over 100 µM. It also gave a TGI (HOP-92 NSCLC) of over 100 µM, a TGI (HOP-62 NSCLC) of over 100 µM and a TGI (UACC-257 melanoma) of over 100 µM. It also gave a TGI (MCF7 breast) of over 100 µM, a TGI (MDA-N) of over 100 µM and a TGI (SNB-75 CNS) of over 100 µM. It also gave a TGI (SK-OV-3 ovarian) of over 100 µM, a TGI (SW-620 colon) of over 100 µM and a TGI (DU-145 prostate) of over 100 µM. The TGI (HCT-116 colon) was over 100 µM, the TGI (K-562 leukemia) was over 100 µM and the TGI (NCI-H23 lung) was over 100 µM. For the same molecule, the TGI (NCI-H460 lung) was over 100 µM, the TGI (SK-MEL-5 melanoma) was over 100 µM and the TGI (HCC-2998 colon) was over 100 µM. For the same molecule, the TGI (U251 CNS) was over 100 µM, the TGI (IGROV1 ovarian) was over 100 µM and the TGI (LOX IMVI melanoma) was over 100 µM. For the same molecule, the TGI (HL-60(TB) leukemia) was over 100 µM, the TGI (OVCAR-8 ovarian) was over 100 µM and the TGI (ACHN renal) was over 100 µM. The TGI (SNB-19 CNS) was over 100 µM, the TGI (OVCAR-5 ovarian) was over 100 µM and the TGI (MDA-MB-231 breast) was over 100 µM. It also gave a TGI (SK-MEL-28 melanoma) of over 100 µM and a TGI (NCI-H226 lung) of over 100 µM.

Molecule `O=C(Cn1c2ccc(Br)cc2c2nc3ccccc3nc21)NCc1ccccc1` has a TGI (HT29 colon) of over 100 µM, a TGI (OVCAR-4 ovarian) of over 100 µM and a TGI (786-0 renal) of 39 µM. It also gave a TGI (SK-MEL-2 melanoma) of 95.1 µM, a TGI (CCRF-CEM leukemia) of over 100 µM and a TGI (MOLT-4 leukemia) of over 100 µM. It also gave a TGI (SN12C renal) of over 100 µM, a TGI (MALME-3M melanoma) of over 100 µM and a TGI (PC-3 prostate) of over 100 µM. It also gave a TGI (BT-549 breast) of over 100 µM, a TGI (HS 578T breast) of 92.4 µM and a TGI (OVCAR-3 ovarian) of over 100 µM. For the same molecule, the TGI (TK-10 renal) was 49.5 µM, the TGI (HCT-15 colon) was over 100 µM and the TGI (T-47D breast) was 18.6 µM. The TGI (M14 melanoma) was over 100 µM, the TGI (UO-31 renal) was over 100 µM and the TGI (COLO 205 colon) was over 100 µM. The TGI (SF-268 CNS) was over 100 µM, the TGI (SF-295 CNS) was over 100 µM and the TGI (MDA-MB-435) was over 100 µM. It also gave a TGI (A498 renal) of over 100 µM, a TGI (RXF 393 renal) of 26.9 µM and a TGI (UACC-62 melanoma) of 93.4 µM. The TGI (NCI/ADR-RES ovarian) was over 100 µM, the TGI (A549 NSCLC) was over 100 µM and the TGI (HOP-92 NSCLC) was 13.1 µM. It also gave a TGI (HOP-62 NSCLC) of over 100 µM, a TGI (UACC-257 melanoma) of over 100 µM and a TGI (RPMI-8226 leukemia) of over 100 µM. It also gave a TGI (SR leukemia) of over 100 µM, a TGI (MDA-N) of over 100 µM and a TGI (SNB-75 CNS) of 19.8 µM. It also gave a TGI (SK-OV-3 ovarian) of over 100 µM, a TGI (SW-620 colon) of over 100 µM and a TGI (DU-145 prostate) of over 100 µM. It also gave a TGI (HCT-116 colon) of over 100 µM, a TGI (K-562 leukemia) of over 100 µM and a TGI (NCI-H23 lung) of over 100 µM. For the same molecule, the TGI (NCI-H460 lung) was over 100 µM, the TGI (SK-MEL-5 melanoma) was over 100 µM and the TGI (HCC-2998 colon) was over 100 µM. For the same molecule, the TGI (U251 CNS) was 69.7 µM, the TGI (IGROV1 ovarian) was over 100 µM and the TGI (LOX IMVI melanoma) was over 100 µM. For the same molecule, the TGI (OVCAR-8 ovarian) was over 100 µM, the TGI (KM12 colon) was over 100 µM and the TGI (ACHN renal) was 41.7 µM. The TGI (SNB-19 CNS) was 72.4 µM, the TGI (OVCAR-5 ovarian) was over 100 µM and the TGI (CAKI-1 renal) was over 100 µM. The TGI (MDA-MB-231 breast) was over 100 µM, the TGI (SK-MEL-28 melanoma) was over 100 µM and the TGI (NCI-H226 lung) was over 100 µM.

`O=C1c2ccccc2C(=O)N1c1ccc(Cc2ccc(N3C(=O)c4ccccc4C3=O)cc2)cc1` was tested, and the TGI (HT29 colon) was over 100 µM, the TGI (OVCAR-4 ovarian) was over 100 µM and the TGI (786-0 renal) was over 100 µM. The TGI (SK-MEL-2 melanoma) was over 100 µM, the TGI (MOLT-4 leukemia) was over 100 µM and the TGI (SN12C renal) was over 100 µM. The TGI (MALME-3M melanoma) was over 100 µM, the TGI (PC-3 prostate) was over 100 µM and the TGI (BT-549 breast) was over 100 µM. It also gave a TGI (HS 578T breast) of over 100 µM, a TGI (OVCAR-3 ovarian) of over 100 µM and a TGI (TK-10 renal) of over 100 µM. The TGI (HCT-15 colon) was over 100 µM, the TGI (T-47D breast) was over 100 µM and the TGI (M14 melanoma) was over 100 µM. The TGI (UO-31 renal) was over 100 µM, the TGI (EKVX NSCLC) was over 100 µM and the TGI (COLO 205 colon) was over 100 µM. For the same molecule, the TGI (SF-268 CNS) was over 100 µM, the TGI (SF-295 CNS) was over 100 µM and the TGI (MDA-MB-435) was over 100 µM. It also gave a TGI (A498 renal) of over 100 µM, a TGI (RXF 393 renal) of over 100 µM and a TGI (SF-539 CNS) of over 100 µM. For the same molecule, the TGI (NCI-H522 lung) was over 100 µM, the TGI (UACC-62 melanoma) was over 100 µM and the TGI (NCI/ADR-RES ovarian) was over 100 µM. It also gave a TGI (A549 NSCLC) of over 100 µM, a TGI (HOP-92 NSCLC) of over 100 µM and a TGI (HOP-62 NSCLC) of over 100 µM. The TGI (UACC-257 melanoma) was over 100 µM, the TGI (RPMI-8226 leukemia) was over 100 µM and the TGI (MCF7 breast) was over 100 µM. It also gave a TGI (MDA-N) of over 100 µM, a TGI (SNB-75 CNS) of over 100 µM and a TGI (SK-OV-3 ovarian) of over 100 µM. The TGI (SW-620 colon) was over 100 µM, the TGI (DU-145 prostate) was over 100 µM and the TGI (HCT-116 colon) was over 100 µM. For the same molecule, the TGI (K-562 leukemia) was over 100 µM, the TGI (NCI-H23 lung) was over 100 µM and the TGI (NCI-H460 lung) was over 100 µM. The TGI (SK-MEL-5 melanoma) was over 100 µM, the TGI (HCC-2998 colon) was over 100 µM and the TGI (U251 CNS) was over 100 µM. The TGI (IGROV1 ovarian) was over 100 µM, the TGI (LOX IMVI melanoma) was over 100 µM and the TGI (OVCAR-8 ovarian) was over 100 µM. It also gave a TGI (KM12 colon) of over 100 µM, a TGI (ACHN renal) of over 100 µM and a TGI (SNB-19 CNS) of over 100 µM. It also gave a TGI (OVCAR-5 ovarian) of over 100 µM, a TGI (CAKI-1 renal) of over 100 µM and a TGI (MDA-MB-231 breast) of over 100 µM. For the same molecule, the TGI (SK-MEL-28 melanoma) was over 100 µM and the TGI (NCI-H226 lung) was over 100 µM.
